Results on six molecules are retold here after PMC6380545, “Myoinhibitory peptide signaling modulates aversive gustatory learning in Caenorhabditis elegans” (PLoS Genetics, 2019).

In test [1] the test system is C. elegans. Kind of test: Taste associative learning, 6 h conditioning with NaCl in the presence of food. In kind it is in vivo. The conditions noted are these: for CI: food (+): 6 hours conditioning on NGM plates with 100 mM NaCl in the presence of bacterial food, with the drug, gradient chemotaxis assay, each row is one single assay (replicate), Figure S5A; for learning behavior after conditioning with 100 mM NaCl in the presence of food: wild-type, blocker in conditioning plates, cycloheximide 300 μg/mL, actinomycin D 50 μg/mL, n ≥ 8. The procedure:
(A) Overview of taste associative learning assays. Synchronized young adult C. elegans are conditioned for six hours on NaCl-containing plates with or without bacterial food. Salt chemotaxis behavior of worms is then tested on NaCl concentration gradients. The CI is calculated from the number of worms that migrated toward the lower and upper parts of the gradient. Worms chemotax to the salt concentrations at which they were fed, but avoid salt concentrations at which they were starved. […] (C) Expression of sprr-2 under its promoter sequence [sprr-2p::sprr-2] rescues the salt avoidance learning defect of sprr-2 mutants. (D) Expression of mip-1 under control of its endogenous promoter sequence [mip-1p::mip-1] rescues the salt avoidance learning defect of mip-1 mutants. (E) A mip-1; sprr-2 double mutant has no additive learning defect. (F) Blocking translation (cycloheximide) or transcription (actinomycin D) during conditioning impairs salt avoidance learning in wild-type animals. (G) Salt avoidance learning of mutants for transcription factors and regulators linked to learning and memory. […] For (B-H), boxplots indicate 25th (lower boundary), 50th (line), and 75th (upper boundary) percentiles. Whiskers show minimum and maximum values. Individual CIs, blue dots. Outliers, black dots. Statistical comparisons by one-way ANOVA and Tukey post-hoc test (n ≥ 6). *p<0.05; **p<0.005; ***p<0.001; n.s., not significant.
Worms were washed off the cultivation plates with chemotaxis buffer (25 mM KH2PO4/K2HPO4 pH 6.6, 1 mM MgSO4, 1 mM CaCl2, 50 mM NaCl) and transferred to unseeded (salt avoidance learning) or seeded NGM conditioning plates with 100 mM NaCl. After 6 hours, animals were washed off and rinsed once with chemotaxis buffer before testing chemotaxis towards NaCl on salt concentration gradients. Salt concentration gradients consisted of a thin layer of 50 mM NaCl 2% agar solution in chemotaxis buffer (background agar, 10 mL was poured into 8.5 cm diameter plates). Additionally, 2% agar in chemotaxis buffer solutions supplemented without 0 mM (lower side) or with 150 mM NaCl (higher side) were prepared by pouring 10 mL agar solution into 35 mm diameter plates. Cylindrical blocks with the diameter of a 15 mL falcon tube were excised from either solution and applied on the background agar 3 cm off centre in opposite directions. Salt concentration gradients were subsequently placed at 20°C for 18 hours before removing the agar chunks prior to use. 30 to 150 worms were placed at the origin and allowed to move freely for 45 minutes after which the CI was calculated as N(higher)—N(lower) / N(all)—N(origin) where N(higher) or N(lower) is the number of animals within a 2-cm radius from the centre of the blocks. Animals within a 1-cm radius from the origin were excluded from the assay. […]

Test [2] has as its system C. elegans. In words: Salt avoidance learning (taste associative learning, 6 h conditioning with NaCl without food). Type of test: in vivo. Conditions: wild-type, blocker in conditioning plates, cycloheximide 300 μg/mL, actinomycin D 50 μg/mL, 100 mM NaCl without food. The source says: We next explored the behavior of sprr-2 mutants in a second established type of gustatory associative learning that depends on food availability and external salt concentration, generally referred to as taste associative learning. […] In contrast, they are averted by NaCl concentrations at which they were starved, a behavior that is called salt avoidance learning (Fig 5A, see Methods). To test taste associative learning of sprr-2 mutants, we fed or starved animals, respectively, for six hours on conditioning plates with 25 mM NaCl (low salt) or 100 mM NaCl (high salt). […] This salt avoidance learning defect could be rescued by reintroducing wild-type copies of sprr-2 under control of its endogenous promoter (Fig 5C). […]
(A) Overview of taste associative learning assays. […] The CI is calculated from the number of worms that migrated toward the lower and upper parts of the gradient. […]
Worms were washed off the cultivation plates with chemotaxis buffer (25 mM KH2PO4/K2HPO4 pH 6.6, 1 mM MgSO4, 1 mM CaCl2, 50 mM NaCl) and transferred to unseeded (salt avoidance learning) or seeded NGM conditioning plates with 100 mM NaCl. […] 30 to 150 worms were placed at the origin and allowed to move freely for 45 minutes after which the CI was calculated as N(higher)—N(lower) / N(all)—N(origin) where N(higher) or N(lower) is the number of animals within a 2-cm radius from the centre of the blocks. […]

Test [3] addresses T1, SPRR-2 (Caenorhabditis elegans, UniProt Q93704).
T1 construct: host or cells: CHO-WTA11 cells (CHO stably expressing aequorin and Galpha16), transiently transfected with sprr-2/pcDNA3.1
T1 sequence (Q93704 1-451): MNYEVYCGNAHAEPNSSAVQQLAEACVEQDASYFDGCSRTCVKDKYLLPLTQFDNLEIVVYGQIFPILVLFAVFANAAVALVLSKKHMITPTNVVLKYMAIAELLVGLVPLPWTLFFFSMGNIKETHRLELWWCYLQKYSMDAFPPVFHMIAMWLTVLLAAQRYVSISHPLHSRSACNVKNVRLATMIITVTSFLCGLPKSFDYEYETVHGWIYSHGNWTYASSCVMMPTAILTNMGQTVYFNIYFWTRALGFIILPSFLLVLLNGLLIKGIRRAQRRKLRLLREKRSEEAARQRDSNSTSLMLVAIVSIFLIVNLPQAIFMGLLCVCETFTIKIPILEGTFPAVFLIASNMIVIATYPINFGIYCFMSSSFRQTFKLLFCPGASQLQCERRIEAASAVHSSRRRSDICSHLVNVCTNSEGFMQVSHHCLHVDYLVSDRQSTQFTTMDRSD
In words: Ca2+ luminescence (aequorin) GPCR activation assay, CHO cells expressing SPRR-2. In kind it is cell-based, C. elegans. The conditions noted are these: CHO cells expressing SPRR-2, Gα16 and aequorin; 0.1 nM to 100 μM; n ≥ 4; read-out: EC50 values (95% CI) for activation of SPRR-2. An excerpt:
Fig 2 MIP-1 neuropeptides activate the MIP receptor ortholog SPRR-2. (A) Ca^2+ luminescence assay for measuring GPCR activation. SPRR-2 is expressed in CHO cells that stably co-express the promiscuous Gα16 protein, which couples the receptor’s activation to the Ca^2+ pathway. Intracellular Ca^2+ levels are monitored by the luminescent Ca^2+ indicator aequorin. (B) Domain structure of the C. elegans NLP-38 peptide precursor, henceforward named MIP-1. Gene models predict that the mip-1 gene encodes two protein isoforms (Wormbase WS261), MIP-1A and MIP-1B, which yield five putative MIP-1 peptides. Predicted proprotein convertase sites are indicated in red. Residues belonging to the W-X5-8-Wamide motif, typical of protostomian MIPs, are indicated in brown. (C) MIP-1 peptides dose-dependently activate SPRR-2. Ca^2+responses of CHO cells expressing SPRR-2 are shown relative (%) to the highest value (100% activation) after normalization to the total Ca^2+ response. […] Error bars show SEM (n ≥ 4).
The C. elegans ortholog SPRR-2 of the insect MIP receptor is an orphan GPCR, meaning that its ligand(s) is unknown. To identify its ligand(s), we used a calcium (Ca^2+)-based reporter assay for GPCR activation wherein SPRR-2 is expressed in Chinese Hamster Ovary (CHO) cells (Fig 2A). We challenged these receptor-expressing cells with a synthetic library of ~350 C. elegans neuropeptides. […] These peptides (NLP-38-1 to 5) all have a C-terminal glycine residue (G) indicative of post-translational modification into an amide (-NH2) group in the mature peptides. In addition, these peptides display the C-terminal sequence W-X5-8-Wamide (Fig 2B), which is typical for MIP neuropeptides in other protostomian species. Because of its relationship to protostomian MIP neuropeptide precursors, we refer to the NLP-38 precursor from here onwards as "MIP-1".
The GPCR activation assay was performed as previously described. Briefly, CHO cells stably expressing the luminescent Ca^2+ indicator aequorin and the promiscuous Gα16 protein (CHO-WTA11 cells, PerkinElmer) were transiently transfected with sprr-2/pcDNA3.1, sprr-1/pcDNA3.1, sprr-3/pcDNA3.1, or empty pcDNA3.1 vector. […] After loading, the transfected cells were added at a density of 25,000 cells/well, and luminescence was measured for 30 s at a wavelength of 469 nm. After 30 s, 0.1% triton X-100 (Merck) was added to lyse the cells, resulting in a maximal Ca^2+ response that was measured for 10 s. […]
All behavioral experiments were performed at least in duplicate on at least two independent days. Total size number is indicated in figure legends by N. Statistical Significance was determined when p < 0.05 as indicated in the figure legends. […]

Several values for one entry are separate records, joined by “and”; a condition that tells them apart may be missing. Equal values may be shown once. Starred links: 1 amine or outer side, 2 acyl side, 3 side chain; linkers in the order of their positions; H or OH if unused. Positions of bridges follow the written chain, without caps; N, C: chain ends. Non-standard residues stand in square brackets, D forms with d. Residues, ends and D or L forms follow the SMILES beside them. Chains are numbered I, II in the order given. No end group written: not given here. Actinocin(9to1) = Cc1c2oc3c(C)ccc(C(=O)[*:1])c3nc-2c(C(=O)[*:2])c(N)c1=O; NMeV = CN[C@H](C(=O)O)C(C)C; Sar = CNCC(=O)O

Turning to `Cc1c2oc3c(C)ccc(C(=O)N[C@@H]4C(=O)N[C@H](C(C)C)C(=O)N5CCC[C@H]5C(=O)N(C)CC(=O)N(C)[C@@H](C(C)C)C(=O)O[C@@H]4C)c3nc-2c(C(=O)N[C@@H]2C(=O)N[C@H](C(C)C)C(=O)N3CCC[C@H]3C(=O)N(C)CC(=O)N(C)[C@@H](C(C)C)C(=O)O[C@@H]2C)c(N)c1=O` [actinomycin D] (I: T[dV]P[Sar][NMeV] / II: T[dV]P[Sar][NMeV]; ester I:1-I:C, II:1-II:C; linker I:N-II:N via Actinocin(9to1)), in test [1], the CI was 0.5595 and 0.6629 and 0.7488 and 0.5052 and 0.5581 and 0.5185; the “learning behavior after conditioning with 100 mM NaCl in the presence of food” value is reported as “does not impair”. Also, the “avoidance of high salt concentrations experienced during starvation (salt avoidance learning)” value in test [2] is “significantly weakened”.

As for `C[C@@H]1C[C@@H]([C@H](O)CC2CC(=O)NC(=O)C2)C(=O)[C@@H](C)C1` [cycloheximide], in test [1], the CI is 0.19 and 0.26 and 0.65 and 0.48 and 0.38 and 0.54 and 0.7415 and 0.7427; the “learning behavior after conditioning with 100 mM NaCl in the presence of food” value is reported as “does not impair”. Also, in test [2], the “avoidance of high salt concentrations experienced during starvation (salt avoidance learning)” value is listed as “significantly weakened”.

In general, EC50 refers to the concentration giving half of the maximal effect. Consider ASDDRVLGWNKAHGLW-NH2 [MIP-1-4], for which the EC50 in test [3] came out at 8.32 nM.

Consider SPAQWQRANGLW-NH2 [MIP-1-3], for which the EC50 in test [3] came out at 16.1 nM.

TPQNWNKLNSLW-NH2 [MIP-1-2]: the EC50 in test [3] amounted to 14.2 nM.

For VLGWNKAHGLW-NH2 [MIP-1-1], the EC50 in test [3] turned out to be 7.5 nM.
